Laboratory results as given in ChEMBL document CHEMBL1139635, “Synthesis, antitumor evaluation and DNA photocleaving activity of novel methylthiazonaphthalimides with aminoalkyl side chains” (Bioorg Med Chem Lett, 2005).

Key:
P388 = test: Cytotoxic concentration against murine P388 leukemia cell line growth determined by microculture tetrazolium-formazan method; assay type: functional, cell-based; details: Mus musculus
Nucleic Acid = test: Scatchard binding constant towards calf thymus DNA; assay type: functional; details: Bos taurus
A549 = test: Cytotoxic concentration against human A549 lung cancer cell line determined by sulforhodamine B dye-staining method; assay type: functional, cell-based

In the case of CN(C)CCN1C(=O)c2cccc3cc(N)cc(c23)C1=O [AMONAFIDE], the IC50 (P388) is reported as 200 nM.
Cc1nc2cc3c4c(cccc4c2s1)C(=O)N(CCCN(C)C)C3=O gave a Binding constant (Nucleic Acid) of 666000 M⁻¹, an IC50 (P388) of 1700 nM and an IC50 (A549) of 1800 nM.
Cc1nc2cc3c4c(cccc4c2s1)C(=O)N(CCN1CCNCC1)C3=O gave a Binding constant (Nucleic Acid) of 226000 M⁻¹, an IC50 (P388) of 1130 nM and an IC50 (A549) of 20.8 nM.
In the case of Cc1nc2cc3c4c(cccc4c2s1)C(=O)N(CCN(C)C)C3=O, the Binding constant (Nucleic Acid) is reported as 231000 M⁻¹, the IC50 (P388) is reported as 31 nM and the IC50 (A549) is reported as 82.8 nM.
CCN(CC)CCN1C(=O)c2cccc3c2c(cc2nc(C)sc23)C1=O was tested, and the Binding constant (Nucleic Acid) was 166000 M⁻¹, the IC50 (P388) was 640 nM and the IC50 (A549) was 158 nM.
